In the NIST ThermoML archive (doi:10.1016/j.jct.2019.05.011) one finds activity coefficient data, which are given here for 27 molecules.

A short description of the data set: activity coefficient (dimensionless); of the first substance listed, at infinite dilution; xn = mol fraction of the nth substance listed. Conditions: 101.33 kPa, Liquid, Chromatography, x1 = 0.

Numbers after ± are expanded uncertainties.

`c1ccsc1` [thiophene] + CC(CC(C)(C)C)CP(=O)([O-])CC(C)CC(C)(C)C.CCCCCCCCCCCCCC[P+](CCCCCC)(CCCCCC)CCCCCC: the activity coefficient was found to be 0.35 ± 0.03 (313.15 K), 0.4 ± 0.03 (323.15 K), 0.41 ± 0.03 (333.15 K) and 0.44 ± 0.04 (343.15 K).

On to `C=CCCCCCCCC` [1-decene] + CC(CC(C)(C)C)CP(=O)([O-])CC(C)CC(C)(C)C.CCCCCCCCCCCCCC[P+](CCCCCC)(CCCCCC)CCCCCC, for which the activity coefficient (313.15 K) was 0.98 ± 0.06, the activity coefficient (323.15 K) turned out to be 1.04 ± 0.07, the activity coefficient (333.15 K) came to 1.15 ± 0.07 and the activity coefficient (343.15 K) was 1.18 ± 0.08.

As for `CCc1ccccc1` [ethylbenzene] + CC(CC(C)(C)C)CP(=O)([O-])CC(C)CC(C)(C)C.CCCCCCCCCCCCCC[P+](CCCCCC)(CCCCCC)CCCCCC, the activity coefficient is 0.57 ± 0.04 (313.15 K), 0.6 ± 0.04 (323.15 K), 0.65 ± 0.04 (333.15 K) and 0.68 ± 0.05 (343.15 K).

Take `CCO` [ethanol] + CC(CC(C)(C)C)CP(=O)([O-])CC(C)CC(C)(C)C.CCCCCCCCCCCCCC[P+](CCCCCC)(CCCCCC)CCCCCC: the activity coefficient is, setting by setting: (323.15 K) 0.04; (333.15 K) 0.06; (343.15 K) 0.07 ± 0.03.

With `C1CCCCCCC1` [cyclooctane] + CC(CC(C)(C)C)CP(=O)([O-])CC(C)CC(C)(C)C.CCCCCCCCCCCCCC[P+](CCCCCC)(CCCCCC)CCCCCC, the activity coefficient runs as follows: (313.15 K) 0.7 ± 0.05; (323.15 K) 0.71 ± 0.05; (333.15 K) 0.77 ± 0.05; (343.15 K) 0.79 ± 0.05.

As for `CCCCO` [butan-1-ol] + CC(CC(C)(C)C)CP(=O)([O-])CC(C)CC(C)(C)C.CCCCCCCCCCCCCC[P+](CCCCCC)(CCCCCC)CCCCCC, the activity coefficient runs as follows: (333.15 K) 0.11 ± 0.03; (343.15 K) 0.12 ± 0.03.

On to `CO` [methanol] + CC(CC(C)(C)C)CP(=O)([O-])CC(C)CC(C)(C)C.CCCCCCCCCCCCCC[P+](CCCCCC)(CCCCCC)CCCCCC, for which the activity coefficient reads like this: (313.15 K) 0.03; (323.15 K) 0.04; (333.15 K) 0.05; (343.15 K) 0.06.

Consider `CCC(C)(C)C` [2,2-dimethylbutane] + CC(CC(C)(C)C)CP(=O)([O-])CC(C)CC(C)(C)C.CCCCCCCCCCCCCC[P+](CCCCCC)(CCCCCC)CCCCCC, for which the activity coefficient was 0.78 ± 0.05 (313.15 K), 0.82 ± 0.05 (323.15 K), 0.9 ± 0.06 (333.15 K) and 0.97 ± 0.06 (343.15 K).

As to `CCC(C)=O` [butanone] + CC(CC(C)(C)C)CP(=O)([O-])CC(C)CC(C)(C)C.CCCCCCCCCCCCCC[P+](CCCCCC)(CCCCCC)CCCCCC, the activity coefficient is 0.65 ± 0.04 (313.15 K), 0.67 ± 0.05 (323.15 K), 0.72 ± 0.05 (333.15 K) and 0.77 ± 0.05 (343.15 K).

Turning to `Cc1ccccc1C` [1,2-dimethylbenzene] + CC(CC(C)(C)C)CP(=O)([O-])CC(C)CC(C)(C)C.CCCCCCCCCCCCCC[P+](CCCCCC)(CCCCCC)CCCCCC, the activity coefficient runs as follows: (313.15 K) 0.6 ± 0.04; (323.15 K) 0.62 ± 0.04; (333.15 K) 0.64 ± 0.04; (343.15 K) 0.67 ± 0.05.

In the case of `CC(C)CC(C)(C)C` [2,2,4-trimethylpentane] + CC(CC(C)(C)C)CP(=O)([O-])CC(C)CC(C)(C)C.CCCCCCCCCCCCCC[P+](CCCCCC)(CCCCCC)CCCCCC, the activity coefficient (313.15 K) was determined as 0.92 ± 0.06, the activity coefficient (323.15 K) was 0.96 ± 0.06, the activity coefficient (333.15 K) is 1.04 ± 0.07 and the activity coefficient (343.15 K) is 1.14 ± 0.07.

Consider `C1CCOC1` [tetrahydrofuran] + CC(CC(C)(C)C)CP(=O)([O-])CC(C)CC(C)(C)C.CCCCCCCCCCCCCC[P+](CCCCCC)(CCCCCC)CCCCCC, for which the activity coefficient reads like this: (313.15 K) 0.43 ± 0.04; (323.15 K) 0.45 ± 0.04; (333.15 K) 0.49 ± 0.04; (343.15 K) 0.52 ± 0.04.

As for `CCCO` [propan-1-ol] + CC(CC(C)(C)C)CP(=O)([O-])CC(C)CC(C)(C)C.CCCCCCCCCCCCCC[P+](CCCCCC)(CCCCCC)CCCCCC, the activity coefficient was 0.07 ± 0.03 (323.15 K), 0.08 ± 0.03 (333.15 K) and 0.09 ± 0.03 (343.15 K).

With `c1ccccc1` [benzene] + CC(CC(C)(C)C)CP(=O)([O-])CC(C)CC(C)(C)C.CCCCCCCCCCCCCC[P+](CCCCCC)(CCCCCC)CCCCCC, the activity coefficient by setting is: (313.15 K) 0.42 ± 0.04; (323.15 K) 0.45 ± 0.04; (333.15 K) 0.49 ± 0.04; (343.15 K) 0.52 ± 0.04.

As for `CCCCCC` [hexane] + CCCCCCCCCCCCCCCC, where the note is “298.15 K”, the activity coefficient stood at 0.874 ± 0.056.

Turning to `CC#N` [acetonitrile] + CC(CC(C)(C)C)CP(=O)([O-])CC(C)CC(C)(C)C.CCCCCCCCCCCCCC[P+](CCCCCC)(CCCCCC)CCCCCC, the activity coefficient (313.15 K) was found to be 1.34 ± 0.09, the activity coefficient (323.15 K) was 1.4 ± 0.09, the activity coefficient (333.15 K) amounted to 1.41 ± 0.09 and the activity coefficient (343.15 K) is 1.46 ± 0.1.

As for `O` [water] + CC(CC(C)(C)C)CP(=O)([O-])CC(C)CC(C)(C)C.CCCCCCCCCCCCCC[P+](CCCCCC)(CCCCCC)CCCCCC, the activity coefficient (313.15 K) is 0.26 ± 0.03, the activity coefficient (323.15 K) came to 0.27 ± 0.03, the activity coefficient (333.15 K) was 0.3 ± 0.03 and the activity coefficient (343.15 K) was 0.31 ± 0.03.

For the molecule `Cc1cccc(C)c1` [1,3-dimethylbenzene] + CC(CC(C)(C)C)CP(=O)([O-])CC(C)CC(C)(C)C.CCCCCCCCCCCCCC[P+](CCCCCC)(CCCCCC)CCCCCC, the activity coefficient is, setting by setting: (313.15 K) 0.63 ± 0.04; (323.15 K) 0.65 ± 0.04; (333.15 K) 0.67 ± 0.05; (343.15 K) 0.7 ± 0.05.

As for `CCCCCCCCC` [nonane] + CC(CC(C)(C)C)CP(=O)([O-])CC(C)CC(C)(C)C.CCCCCCCCCCCCCC[P+](CCCCCC)(CCCCCC)CCCCCC, the activity coefficient (313.15 K) is 1.04 ± 0.07, the activity coefficient (323.15 K) is 1.11 ± 0.07, the activity coefficient (333.15 K) stood at 1.23 ± 0.08 and the activity coefficient (343.15 K) was 1.25 ± 0.08.

For the molecule `Cc1ccc(C)cc1` [1,4-dimethylbenzene] + CC(CC(C)(C)C)CP(=O)([O-])CC(C)CC(C)(C)C.CCCCCCCCCCCCCC[P+](CCCCCC)(CCCCCC)CCCCCC, the activity coefficient is, setting by setting: (313.15 K) 0.6 ± 0.04; (323.15 K) 0.63 ± 0.04; (333.15 K) 0.65 ± 0.04; (343.15 K) 0.69 ± 0.05.

Take `CC(C)=O` [acetone] + CC(CC(C)(C)C)CP(=O)([O-])CC(C)CC(C)(C)C.CCCCCCCCCCCCCC[P+](CCCCCC)(CCCCCC)CCCCCC: the activity coefficient came to 0.7 ± 0.05 (313.15 K), 0.72 ± 0.05 (323.15 K), 0.78 ± 0.05 (333.15 K) and 0.83 ± 0.05 (343.15 K).

`C=CCCCCC` [1-heptene] + CC(CC(C)(C)C)CP(=O)([O-])CC(C)CC(C)(C)C.CCCCCCCCCCCCCC[P+](CCCCCC)(CCCCCC)CCCCCC: the activity coefficient worked out at 0.77 ± 0.05 (313.15 K), 0.81 ± 0.05 (323.15 K), 0.88 ± 0.06 (333.15 K) and 0.95 ± 0.06 (343.15 K).

With `C=CCCCCCCC` [1-nonene] + CC(CC(C)(C)C)CP(=O)([O-])CC(C)CC(C)(C)C.CCCCCCCCCCCCCC[P+](CCCCCC)(CCCCCC)CCCCCC, the activity coefficient is, setting by setting: (313.15 K) 0.91 ± 0.06; (323.15 K) 0.95 ± 0.06; (333.15 K) 1.08 ± 0.07; (343.15 K) 1.14 ± 0.07.

As for `Cc1ccccc1` [toluene] + CC(CC(C)(C)C)CP(=O)([O-])CC(C)CC(C)(C)C.CCCCCCCCCCCCCC[P+](CCCCCC)(CCCCCC)CCCCCC, the activity coefficient by setting is: (313.15 K) 0.5 ± 0.04; (323.15 K) 0.51 ± 0.04; (333.15 K) 0.56 ± 0.04; (343.15 K) 0.59 ± 0.04.

As for `CC1CCCCC1` [methylcyclohexane] + CC(CC(C)(C)C)CP(=O)([O-])CC(C)CC(C)(C)C.CCCCCCCCCCCCCC[P+](CCCCCC)(CCCCCC)CCCCCC, the activity coefficient (313.15 K) is 0.64 ± 0.04, the activity coefficient (323.15 K) is 0.68 ± 0.05, the activity coefficient (333.15 K) came to 0.73 ± 0.05 and the activity coefficient (343.15 K) is 0.78 ± 0.05.

For the molecule `CCCCCCCCCC` [decane] + CC(CC(C)(C)C)CP(=O)([O-])CC(C)CC(C)(C)C.CCCCCCCCCCCCCC[P+](CCCCCC)(CCCCCC)CCCCCC, the activity coefficient by setting is: (313.15 K) 1.22 ± 0.08; (323.15 K) 1.28 ± 0.08; (333.15 K) 1.33 ± 0.09; (343.15 K) 1.39 ± 0.09.

Regarding `C1=CCCCC1` [cyclohexene] + CC(CC(C)(C)C)CP(=O)([O-])CC(C)CC(C)(C)C.CCCCCCCCCCCCCC[P+](CCCCCC)(CCCCCC)CCCCCC, the activity coefficient stood at 0.57 ± 0.04 (313.15 K), 0.59 ± 0.04 (323.15 K), 0.64 ± 0.04 (333.15 K) and 0.68 ± 0.05 (343.15 K).
